Results published in patent publication US9006208B2, “Agent for treatment of dry eye characterized by combining P2Y2 receptor agonist and hyaluronic acid or salt thereof, method for treating dry eye, and use of the P2Y2 receptor agonist and hyaluronic acid or salt thereof” (Santen Pharmaceutical Co., Ltd., priority 2010, dated 2015).

Columns and labels:
rabbits = conditions: Current Eye Research 21(4), 782-787 (2000); cited from earlier work
[1] = tested on: normal male white rabbits; test: Pharmacological Test 1: change in tear meniscus area after ocular instillation (3% diquafosol sodium, 0.1% sodium hyaluronate); assay type: in vivo, rabbit; conditions: 50 μL instilled once, FIG. 1
Experimental: The change in the tear fluid volume can be evaluated by measuring the value of a tear meniscus area stained with a fluorescein solution (Exp. Eye. Res., 78(3), 399-407 (2004)). Then, the time course of a change in the tear meniscus area value after the sequential administration of diquafosol sodium, which is a P2Y2 receptor agonist, and sodium hyaluronate to eyes was evaluated in accordance with the method of Murakami et al. (Ophthalmic Res., 34, 371-374 (2002)), using normal male white rabbits. […]
A 0.1% fluorescein solution (3 μL) was administered onto a tear meniscus of the lower eyelid of each of normal male white rabbits (40 eyes of 20 rabbits in total), and a photograph of the tear meniscus that was stained with fluorescein accumulated in the eyelid was taken. The area of the stained tear meniscus part in the photograph was calculated using image analysis software, and the resultant value was employed as a baseline. […]
The change in the tear meniscus area before and after the administration of each of the drugs was calculated as “Δ tear meniscus area value”. […]

[2] = tested on: rat model from which an exorbital lacrimal gland is excised, additionally applied airflow (corneal epithelial disorder); test: Pharmacological Test 2: corneal fluorescein staining score in rat dry eye model (exorbital lacrimal gland excised plus airflow); assay type: in vivo; conditions: 5 μL into both eyes 6 times per day for 6 weeks; 3% diquafosol sodium, 0.1% sodium hyaluronate; compared with non-administered group; FIG. 2
Excerpt: A rat model from which an exorbital lacrimal gland is excised therefrom has been generally used as a model for evaluating therapeutic effects on corneal epithelial disorders induced by dry eye, and has also been used as a model for evaluating therapeutic effects of P2Y2 receptor agonists (Invest. Ophthalmol. Vis. Sci., 42(1), 96-100 (2001)). Using a dry eye model which is additionally applied airflow to the rat model, it was examined whether or not an improvement effect on corneal epithelial disorders could be achieved by the administration of a P2Y2 receptor agonist at a therapeutically effective concentration and hyaluronic acid or a salt thereof at a therapeutically effective concentration in combination. […]
Six weeks after the initiation of the instillation into eyes, an affected part of the cornea was stained with fluorescein, and the occurrence of the corneal epithelial disorder was determined in accordance with the method by Murakami et al. (Journal of the Eye (Atarashii Ganka), 21(1), 87-90 (2004)). That is, with respect to each of an upper part, an intermediate part and a lower part of the cornea, scores of the degree of staining with fluorescein were determined in accordance with the criteria mentioned below, and the average value of the sum total of the scores was calculated. […]

[3] = tested on: normal male white rabbits; test: Pharmacological Test 3: change in tear meniscus area (3% diquafosol sodium, 0.002% sodium hyaluronate); assay type: in vivo, rabbit; conditions: 35 minutes after administration, 50 μL, combination: hyaluronate 5 min after diquafosol
Experimental: For the purpose of examining as to whether or not an increase in tear meniscus area values is observed when a P2Y2 receptor agonist at a therapeutically effective concentration is combined with hyaluronic acid or a salt thereof at a concentration which is employed as an additive, the time course of a change in the tear meniscus area value after the sequential ocular instillation of the 3% diquafosol sodium and the 0.002% sodium hyaluronate was evaluated in the same manner as in Pharmacological test 1.
A 3% diquafosol sodium ophthalmic solution was prepared in the same manner as in the above-mentioned Pharmacological test 1. A 0.002% sodium hyaluronate ophthalmic solution was prepared by diluting “Hyalein® ophthalmic solution 0.3%” manufactured and sold by Santen Pharmaceutical Co., Ltd. with physiological saline.
With respect to normal male white rabbits (24 eyes of 12 rabbits in total), a photograph of a tear meniscus before the administration of a drug was taken in the same manner as in pharmacological test 1. […]
(§1) The change in the tear meniscus area before and after the administration of each of the drugs was calculated as a “Δ tear meniscus area value”.

[4] = tested on: normal male white rabbits; test: Pharmacological Test 4: change in tear meniscus area (3% diquafosol sodium, 0.3% sodium hyaluronate); assay type: in vivo, rabbit; conditions: after 35 minutes, 50 μL, combination: hyaluronate 5 min after diquafosol
Experimental: The time course of a change in tear meniscus area values after the sequential instillation of 3% diquafosol sodium and 0.3% sodium hyaluronate into eyes was evaluated in the same manner as in Pharmacological test 1.
A 3% diquafosol sodium ophthalmic solution was prepared in the same manner as in the above-mentioned Pharmacological test 1. “Hyalein® ophthalmic solution 0.3%” manufactured and sold by Santen Pharmaceutical Co., Ltd. was used as a 0.3% sodium hyaluronate ophthalmic solution.
With respect to each of normal male white rabbits (18 eyes of 9 rabbits in total), a photograph of a tear meniscus was taken before the administration of each of the drug in the same manner as in Pharmacological test 1. […]
as §1

[5] = clinical tests; Cornea 23(8), 784-792 (2004); cited from earlier work

SMILES | secretion of tear (rabbits) | Δ tear meniscus area value ([1]; 10 minutes after administration (of the first agent)) | Δ tear meniscus area value ([1]; 35 minutes after administration (of the first agent)) | fluorescein staining scores of the cornea [2] | Δ tear meniscus area value [3] | Δ tear meniscus area value [4] | keratoconjunctival epithelial disorders [5] | secretion of tear [5]
Nc1ncnc2c1ncn2[C@@H]1O[C@H](COP(=O)(O)OP(=O)(O)OP(=O)(O)O)[C@@H](O)[C@H]1O [ATP, Adenosine 5′-triphosphate] | can promote the secretion of tear in rabbits |  |  |  |  |  |  | 
O=c1ccn([C@@H]2O[C@H](COP(=O)(O)OP(=O)(O)OP(=O)(O)OP(=O)(O)OC[C@H]3O[C@@H](n4ccc(=O)[nH]c4=O)C(O)[C@H]3O)[C@H](O)C2O)c(=O)[nH]1 (stereo partly drawn) [Diquafosol, P^1,P^4-bis(5′-uridyl)tetraphosphate] |  | increase in the tear meniscus area value was observed | increase in the tear meniscus area value was observed | the tendency of improvement in fluorescein staining scores was observed, the improvement that can be considered as being statistically significant was not observed | 1 .127 mm^2 | 1.434 mm^2 | ameliorated keratoconjunctival epithelial disorders | promoted the secretion of tear
O=c1ccn([C@@H]2O[C@H](COP(=O)(O)OP(=O)(O)OP(=O)(O)O)[C@@H](O)[C@H]2O)c(=O)[nH]1 [UTP, Uridine 5′-triphosphate] | can promote the secretion of tear in rabbits |  |  |  |  |  |  | 
